Test results published in patent US20130236568A1, “PHOSPHAPLATINS HAVING ANTI-ANGIOGENIC, ANTI-METASTATIC, AND PRO-APOPTOTIC PROPERTIES AND USES THEREOF” (Ohio University, priority 2011, published 2013).

Legend:
VEGFR2 gene = test: Quantitative real-time PCR, VEGFR2 gene expression in HUVEC cells; type: cell-based, human
Method: (§1) Evaluations of selected gene expressions in Human Umbilical Vein Endothelial Cells (HUVEC) and Human Ovarian Cancer Cells by quantitative reverse transcriptase polymerase chain reaction (PCR)
Quantitative real-time PCR experiments were performed to estimate the expression of a selection of targeted genes. HUVEC cells (Lonza Walkersville, Frederick, Md.) were cultured on 0.1% gelatin-coated petri dishes by following standard protocols recommended by the vendor in a humidified incubator by maintaining 5% CO2 at 37° C. […]
Both treated and untreated cancer cells were maintained in RPMI 1640 medium with 10% fetal bovine serum, 2 μmol L-glutamine, 100 units/mL penicillin-streptomycin and 0.25 units/mL insulin solution, at 37° C. with 5% CO2. […] The quantity and purity of RNA were determined by UV spectroscopy (NanoDrop 2000 Thermo Scientific, Wilmington, Del.). A minimum absorbance ratio index (ratio of the absorbance measured at 260 nm over that at 280 nm) of 1.9 was used as an acceptable purity. […] The target gene was labeled with a blue dye (FAM, absorbance: 494 nm, emission: 518 nm) while the reference gene was tagged with a green dye (VIC, absorbance: 538 nm, emission: 554 nm). […]
(§2) The threshold cycle number (Ct), the point at which the fluorescence of the qPCR reaction just exceeds the threshold fluorescence of the detection system, was determined. […]

[1] = tested on: yeast deletion collection; test: Genome-wide fitness assay in yeast (pooled deletion strains); type: cell-based
Text: The around 6000 strains in the yeast deletion collection can be studied in a single culture by using a microarray to detect the 20 bp DNA “barcodes” or “tags” contained in each strain. Barcode intensities are compared across time-points or across conditions to analyze the relative fitness of each strain. This development of the pooled fitness assay has greatly facilitated the functional annotation of the yeast genome by making genome-wide gene-deletion studies faster and easier, and has led to the development of high throughput methods for studying drug action in yeast. Pooled screens can be used for identifying gene functions, measuring the functional relatedness of gene pairs in order to group genes into pathways, identifying drug targets, and determining a drug's mechanism of action. This process involves five main steps: preparing aliquots of pooled cells, pooled growth, isolation of genomic DNA and PCR amplification of the barcodes, array hybridization (or next generation sequencing), and data analysis.
The pooled fitness assay involves five main steps (FIG. 3). First, the deletion collection is grown on solid media in arrayed format and the resulting cells are pooled and frozen to make cell aliquots that will be used for starting growth experiments. Cells are then grown in the desired conditions, typically for 5 to 20 generations. The barcodes from the resulting cell samples are prepared for hybridization by isolation of the genomic DNA and PCR amplification of the barcodes. The barcodes are amplified in two reactions to prevent crosstalk between the uptag and downtag primers. The resulting PCR products are then hybridized to tag arrays with one array needed per cell sample. Data is then analyzed to determine differences in strain representation between pairs of samples.
To analyze the genome wide effects of pyrodach-2 and -4, we screened 2 collections of strains, 1200 essential genes as heterozygote deletion mutants (reducing functional gene dose from 2 to 1) and 4800 non-essential genes as complete deletions (reducing functional gene dose from 2 to 0). Both compounds were screened at the highest dose possible (200 μM final concentration) to increase the likelihood of finding compound-specific sensitive strains.
Fitness profiling of pooled deletion strains involves […] main steps: • 1. Strains are first pooled at approximately equal abundance. • 2. The pool is grown competitively in the condition of choice and a control condition. If a gene is sensitive to the treatment condition, the strain carrying this deletion will grow more slowly and become under-represented relative to the control culture (purple strain). Resistant strains will grow faster and become over-represented (not shown). • 3. Genomic DNA is isolated from cells harvested at the end of pooled growth, and barcodes are amplified from the genomic DNA with universal primers. • 4. PCR products are then hybridized to an array that detects the tag sequences, giving tag intensities for the two samples. • 5. The treatment and control sample are then compared to determine the relative fitness of each strain. Note that only the purple strain is described as sensitive to the condition. While the red strain grows more slowly than the blue strain in the treatment, this growth difference in not of interest because it matches that seen in the control.

PTEN = test: Quantitative real-time PCR, PTEN expression in A2780 cells; type: cell-based, human; conditions: for Normalized expression of PTEN: control = 1.0
Method: as §1
Quantitative real-time PCR experiments were performed to estimate the expression of a selection of targeted genes. HUVEC cells (Lonza Walkersville, Frederick, Md.) were cultured on 0.1% gelatin-coated petri dishes by following standard protocols recommended by the vendor in a humidified incubator by maintaining 5% CO2 at 37° C. Human epithelial ovarian cancer cells (A2780) and cisplatin-resistant cells (A2780/C30) were cultured in RPMI 1640 with or without cisplatin (7 μM) and pyrodach-4 (180 μM) for 0, 3, 12 and 24 hours. […] HUVECs were treated with or without cisplatin (7 μM) or pyrodach-4 (90 or 180 μM) for various durations ranging from 1 hr. to 6 hrs.
Both treated and untreated cancer cells were maintained in RPMI 1640 medium with 10% fetal bovine serum, 2 μmol L-glutamine, 100 units/mL penicillin-streptomycin and 0.25 units/mL insulin solution, at 37° C. with 5% CO2. RNA was isolated from both the treated and untreated cells. […] The quantity and purity of RNA were determined by UV spectroscopy (NanoDrop 2000 Thermo Scientific, Wilmington, Del.). A minimum absorbance ratio index (ratio of the absorbance measured at 260 nm over that at 280 nm) of 1.9 was used as an acceptable purity. […] The target gene was labeled with a blue dye (FAM, absorbance: 494 nm, emission: 518 nm) while the reference gene was tagged with a green dye (VIC, absorbance: 538 nm, emission: 554 nm). The cDNA concentrations were selected such that the threshold cycle (Ct) values for the target genes were between 17 and 32, most sensitive for the fluorescence detection by ABI StepOnePlus™ instrument used for the measurements.
as §2

trans-(±)-1,2-cyclohexanediamine-trans-dihydroxo(pyrophosphato) platinum(IV) [Pyrodach-4]
Suppression of VEGFR-2 expression (VEGFR2 gene): ≤ 50%
Normalized expression of VEGFR2 gene (VEGFR2 gene; positive = manifold increase, negative = relative decrease vs untreated cells, pyrodach-4 90 or 180 μM, 1 to 6 hrs): −2.0
Tolerability by the yeast cell (few sensitive strains) ([1]; highest dose possible, 200 μM final concentration): well tolerated by the cell
Functions enriched among sensitive strains ([1]; yeast deletion strains, 200 μM final concentration): 1) iron and copper transport and 2) metal-regulated transcription factors
Sensitivity of DNA damage/repair genes (NER, HRR, PRR) ([1]; yeast deletion strains, phosphaplatins at 200 μM final concentration): not a single gene involved in DNA repair or other DNA metabolic processes showed any sensitivity as a mutant
Expression of the PTEN gene compared to control (PTEN): 5.5 fold
Normalized expression of PTEN (PTEN; pyrodach-4 alone): 5.5
Normalized expression of PTEN (PTEN; pyrodach-4 in the presence of p53 inhibitor PTF-α): 0.8
